Results reported in patent US9000186B2, “Ring-fused heterocyclic derivative” (Kyowa Hakko Kirin Co., Ltd., priority 2011, dated 2015).

target: T1, human Cav3.2 T-type Ca2+ channel (Homo sapiens, UniProt O95180); test: Inhibitory effect for intracellular calcium response via Cav3.2 T-type Ca2+ channels (FLIPR Calcium 3 Assay Kit); type: cell-based; conditions: not given
T1 construct: expressed in transfected cells; host or cells: KJMGER8 cells (Namalwa cell-derived cell line)
T1 sequence (O95180 whole entry): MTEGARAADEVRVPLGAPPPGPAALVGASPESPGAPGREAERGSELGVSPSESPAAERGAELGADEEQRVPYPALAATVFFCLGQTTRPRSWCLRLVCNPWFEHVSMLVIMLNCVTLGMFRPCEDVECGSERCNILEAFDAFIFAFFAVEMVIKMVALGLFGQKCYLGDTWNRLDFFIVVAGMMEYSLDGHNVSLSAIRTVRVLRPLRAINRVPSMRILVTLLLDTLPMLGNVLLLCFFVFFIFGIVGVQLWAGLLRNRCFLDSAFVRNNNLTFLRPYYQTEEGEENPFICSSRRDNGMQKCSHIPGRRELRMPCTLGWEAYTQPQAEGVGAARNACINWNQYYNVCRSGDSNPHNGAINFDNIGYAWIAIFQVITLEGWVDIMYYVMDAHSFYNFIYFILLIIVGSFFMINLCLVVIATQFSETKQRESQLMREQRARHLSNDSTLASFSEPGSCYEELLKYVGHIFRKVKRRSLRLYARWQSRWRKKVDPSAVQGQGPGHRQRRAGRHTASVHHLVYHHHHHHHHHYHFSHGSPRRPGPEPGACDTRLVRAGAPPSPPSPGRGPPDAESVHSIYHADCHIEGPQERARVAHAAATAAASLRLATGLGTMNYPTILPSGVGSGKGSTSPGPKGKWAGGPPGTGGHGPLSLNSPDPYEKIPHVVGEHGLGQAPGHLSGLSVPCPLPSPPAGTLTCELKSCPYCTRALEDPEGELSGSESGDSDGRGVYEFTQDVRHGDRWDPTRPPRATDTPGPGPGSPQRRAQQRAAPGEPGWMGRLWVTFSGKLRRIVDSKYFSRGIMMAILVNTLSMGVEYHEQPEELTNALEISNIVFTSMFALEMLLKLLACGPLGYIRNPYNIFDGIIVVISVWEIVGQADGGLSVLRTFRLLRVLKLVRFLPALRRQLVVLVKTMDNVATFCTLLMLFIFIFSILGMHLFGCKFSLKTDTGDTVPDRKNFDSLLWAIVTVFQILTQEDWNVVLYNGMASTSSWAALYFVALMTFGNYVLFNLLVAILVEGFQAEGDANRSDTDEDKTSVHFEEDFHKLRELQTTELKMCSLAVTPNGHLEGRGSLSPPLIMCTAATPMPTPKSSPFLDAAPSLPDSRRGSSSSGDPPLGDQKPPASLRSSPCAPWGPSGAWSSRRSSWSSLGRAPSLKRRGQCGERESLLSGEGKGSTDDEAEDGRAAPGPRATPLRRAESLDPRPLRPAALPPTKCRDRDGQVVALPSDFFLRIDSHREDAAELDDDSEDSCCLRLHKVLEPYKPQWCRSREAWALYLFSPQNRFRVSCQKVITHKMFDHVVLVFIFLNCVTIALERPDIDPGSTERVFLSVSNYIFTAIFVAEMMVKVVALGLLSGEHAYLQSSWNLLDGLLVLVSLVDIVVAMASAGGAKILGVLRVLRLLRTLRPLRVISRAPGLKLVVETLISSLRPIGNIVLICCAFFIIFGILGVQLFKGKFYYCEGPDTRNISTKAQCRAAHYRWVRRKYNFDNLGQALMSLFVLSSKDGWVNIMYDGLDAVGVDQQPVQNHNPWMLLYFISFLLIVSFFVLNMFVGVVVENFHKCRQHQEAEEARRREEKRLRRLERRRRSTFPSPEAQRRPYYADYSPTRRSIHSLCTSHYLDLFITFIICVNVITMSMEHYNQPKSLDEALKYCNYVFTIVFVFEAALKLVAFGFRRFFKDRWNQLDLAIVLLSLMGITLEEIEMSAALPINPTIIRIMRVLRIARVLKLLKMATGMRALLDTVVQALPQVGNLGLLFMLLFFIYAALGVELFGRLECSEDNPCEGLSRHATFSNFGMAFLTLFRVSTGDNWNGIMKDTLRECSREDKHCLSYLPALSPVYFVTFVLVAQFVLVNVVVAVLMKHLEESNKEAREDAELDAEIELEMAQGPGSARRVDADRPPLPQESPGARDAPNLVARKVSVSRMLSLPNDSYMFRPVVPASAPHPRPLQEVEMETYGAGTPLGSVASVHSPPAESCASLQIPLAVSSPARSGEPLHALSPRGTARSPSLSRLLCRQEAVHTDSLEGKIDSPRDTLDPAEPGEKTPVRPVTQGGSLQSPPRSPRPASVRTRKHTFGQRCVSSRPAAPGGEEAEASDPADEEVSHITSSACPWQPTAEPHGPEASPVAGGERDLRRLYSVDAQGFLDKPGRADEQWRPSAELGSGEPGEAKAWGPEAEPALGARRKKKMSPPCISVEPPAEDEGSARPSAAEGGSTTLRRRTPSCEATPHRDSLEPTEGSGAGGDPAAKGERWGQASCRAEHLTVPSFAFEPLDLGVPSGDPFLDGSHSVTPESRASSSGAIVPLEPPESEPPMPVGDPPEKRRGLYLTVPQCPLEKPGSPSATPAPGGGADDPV

Structure (SMILES)	IC50
O=C(Nc1ccccc1)c1cc(Cl)n2c(CC3CCC(F)(F)CC3)c(C(F)(F)F)nc2c1 [Compound 102, 5-Chloro-3-(4,4-difluorocyclohexylmethyl)-N-phenyl-2-trifluoromethylimidazo[1,2-a]pyridine-7-carboxamide]	< 100 nM
O=C(NC1CCOCC1)c1ccn2c(CC3CCC(F)(F)CC3)c(C3(C(F)(F)F)CC3)nc2c1 [Compound 65, 3-(4,4-Difluorocyclohexylmethyl)-N-(tetrahydro-2H-pyran-4-yl)-2-(1-trifluoromethylcyclopropyl)imidazo[1,2-a]pyridine-7-carboxamide]	< 100 nM
CC(C)c1nc2cc(C(=O)Nc3ccccc3)ccn2c1SC1CCCCC1 [Compound 40, 3-Cyclohexylthio-2-isopropyl-N-phenylimidazo[1,2-a]pyridine-7-carboxamide]	< 100 nM
CC1(C)COCCC1NC(=O)c1ccn2c(CC3CCC(F)(F)CC3)c(C(F)(F)F)nc2c1 (stereo not shown) [Compound 53, 3-(4,4-Difluorocyclohexylmethyl)-N-(3,3-dimethyltetrahydro-2H-pyran-4-yl)-2-trifluoromethylimidazo[1,2-a]pyridine-7-carboxamide]	< 100 nM
CN(C(C)(C)C)S(=O)(=O)c1c(C(F)(F)F)nc2cc(C(=O)Nc3ccccc3)ccn12 [Compound 147, 3-(N-tert-Butyl-N-methylsulfamoyl)-N-phenyl-2-trifluoromethylimidazo[1,2-a]pyridine-7-carboxamide]	< 100 nM

same assay, conditions: human Cav3.2-expressing KJMGER8 cells (Namalwa-derived); calcium response induced by 5 mmol/L CaCl2; normalised to 3 μmol/L mibefradil; read-out: IC50 for the human Cav3.2 T-type Ca2+ current

Structure (SMILES)	IC50
CC(C)c1nc2nc(C(=O)NC3CCCCC3)ccn2c1S(=O)(=O)N1CCC(F)(F)CC1 [Compound 172, N-Cyclohexyl-3-(4,4-difluoropiperidin-1-ylsulfonyl)-2-isopropylimidazo[1,2-a]pyrimidine-7-carboxamide]	< 100 nM
C=Cc1cn2c(CC3CCC(F)(F)CC3)c(C(F)(F)F)nc2cc1C(=O)Nc1ccccc1 [Compound 120, 3-(4,4-Difluorocyclohexylmethyl)-N-phenyl-2-trifluoromethyl-6-vinylimidazo[1,2-a]pyridine-7-carboxamide]	< 100 nM
CC(C)c1nc2nc(C(=O)Nc3ccccc3)ccn2c1S(=O)(=O)N1CCC(F)(F)CC1 [Compound 171, 3-(4,4-Difluoropiperidin-1-ylsulfonyl)-2-isopropyl-N-phenylimidazo[1,2-a]pyrimidine-7-carboxamide]	< 100 nM
CC(C)c1nc2cc(C(=O)NOCc3ccccc3)c(Cl)cn2c1S(=O)(=O)N1CC(F)(F)C1 [Compound 152, N-Benzyloxy-6-chloro-3-(3,3-difluoroazetidin-1-ylsulfonyl)-2-isopropylimidazo[1,2-a]pyridine-7-carboxamide]	< 100 nM
CC(C)c1nc2cc(C(=O)Nc3ccccc3N)c(Cl)cn2c1S(=O)(=O)N1CC(F)(F)C1 [Compound 149, N-(2-Aminophenyl)-6-chloro-3-(3,3-difluoroazetidin-1-ylsulfonyl)-2-isopropylimidazo[1,2-a]pyridine-7-carboxamide]	< 100 nM
CC1(CNC(=O)c2ccn3c(CC4CCC(F)(F)CC4)c(C(F)(F)F)nc3c2)CCCO1 (stereo not shown) [Compound 57, 3-(4,4-Difluorocyclohexylmethyl)-N-{(2-methyltetrahydrofuran-2-yl)methyl}-2-trifluoromethylimidazo[1,2-a]pyridine-7-carboxamide]	< 100 nM
Cc1cn2c(S(=O)(=O)N3CC4(COC4)C3)c(C(C)C)nc2cc1C(=O)Nc1ccccc1 [Compound 166, 3-(2-Oxa-6-azaspiro[3.3]heptan-6-ylsulfonyl)-2-isopropyl-6-methyl-N-phenylimidazo[1,2-a]pyridine-7-carboxamide]	< 100 nM
CC(C)c1nc2cc(C(=O)NC3CC(F)(F)C3)c(Cl)cn2c1S(=O)(=O)NC(C)(C)C [Compound 158, 3-(N-tert-Butylsulfamoyl)-6-chloro-N-(3,3-difluorocyclobutyl)-2-isopropylimidazo[1,2-a]pyridine-7-carboxamide]	< 100 nM
